The results in this text go back to ChEMBL document CHEMBL3991601, “The target landscape of clinical kinase drugs” (Science, 2017).

Calls of active or inactive are those of the source. Rule as the data show it, for most assays here: actives have a measured Kd and inactives only a lower limit.

In experiment [1] the target is Receptor-interacting serine/threonine-protein kinase 3 (Homo sapiens, UniProt Q9Y572).
The target in experiment [2] is Cyclin-dependent kinase 13 (Homo sapiens, UniProt Q14004).
Sequence of Cyclin-dependent kinase 13 (Q14004 whole entry): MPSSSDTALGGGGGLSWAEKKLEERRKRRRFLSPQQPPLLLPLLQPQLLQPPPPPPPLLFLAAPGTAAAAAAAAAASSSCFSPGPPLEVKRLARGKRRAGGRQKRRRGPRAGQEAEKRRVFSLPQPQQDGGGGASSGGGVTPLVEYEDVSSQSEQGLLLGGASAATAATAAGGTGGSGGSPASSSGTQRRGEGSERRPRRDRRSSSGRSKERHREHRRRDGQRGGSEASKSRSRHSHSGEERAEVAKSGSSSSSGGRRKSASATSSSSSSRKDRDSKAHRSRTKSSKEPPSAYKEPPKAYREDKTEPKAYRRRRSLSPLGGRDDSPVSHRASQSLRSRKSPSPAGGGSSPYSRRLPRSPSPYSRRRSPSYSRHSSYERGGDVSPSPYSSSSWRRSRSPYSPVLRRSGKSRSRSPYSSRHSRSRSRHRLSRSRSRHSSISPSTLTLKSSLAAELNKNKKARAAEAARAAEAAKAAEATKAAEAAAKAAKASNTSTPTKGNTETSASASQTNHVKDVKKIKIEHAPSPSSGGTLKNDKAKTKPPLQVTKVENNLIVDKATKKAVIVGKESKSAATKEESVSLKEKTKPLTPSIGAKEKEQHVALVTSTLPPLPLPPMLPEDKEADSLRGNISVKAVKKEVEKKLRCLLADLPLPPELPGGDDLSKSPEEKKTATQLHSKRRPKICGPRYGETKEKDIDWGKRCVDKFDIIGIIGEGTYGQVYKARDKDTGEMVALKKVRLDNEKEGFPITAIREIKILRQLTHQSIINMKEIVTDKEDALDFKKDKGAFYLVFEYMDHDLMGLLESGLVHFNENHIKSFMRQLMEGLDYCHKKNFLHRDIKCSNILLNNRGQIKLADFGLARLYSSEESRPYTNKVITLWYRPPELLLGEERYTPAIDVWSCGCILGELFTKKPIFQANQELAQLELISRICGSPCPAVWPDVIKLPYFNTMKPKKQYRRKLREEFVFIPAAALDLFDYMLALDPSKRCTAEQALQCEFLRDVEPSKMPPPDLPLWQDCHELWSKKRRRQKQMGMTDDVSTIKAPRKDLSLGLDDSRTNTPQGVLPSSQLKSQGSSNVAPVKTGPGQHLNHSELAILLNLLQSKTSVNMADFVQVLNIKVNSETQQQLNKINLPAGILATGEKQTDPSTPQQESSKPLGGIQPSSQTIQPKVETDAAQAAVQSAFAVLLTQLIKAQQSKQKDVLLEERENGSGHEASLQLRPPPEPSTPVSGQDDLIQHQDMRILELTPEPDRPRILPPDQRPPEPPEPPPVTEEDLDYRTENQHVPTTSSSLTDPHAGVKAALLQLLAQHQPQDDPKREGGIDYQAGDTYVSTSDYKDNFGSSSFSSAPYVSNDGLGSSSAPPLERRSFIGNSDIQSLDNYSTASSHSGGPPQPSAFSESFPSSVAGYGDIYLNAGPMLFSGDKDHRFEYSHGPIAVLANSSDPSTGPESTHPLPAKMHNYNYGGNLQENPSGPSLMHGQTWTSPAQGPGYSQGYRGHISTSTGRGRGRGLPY
Experiment [3] concerns the target Mitogen-activated protein kinase kinase kinase 20 (Homo sapiens, UniProt Q9NYL2).
Experiment [4] has as its target T1, Mitogen-activated protein kinase kinase kinase 5 (Homo sapiens, UniProt Q99683).
T1 sequence (Q99683 whole entry): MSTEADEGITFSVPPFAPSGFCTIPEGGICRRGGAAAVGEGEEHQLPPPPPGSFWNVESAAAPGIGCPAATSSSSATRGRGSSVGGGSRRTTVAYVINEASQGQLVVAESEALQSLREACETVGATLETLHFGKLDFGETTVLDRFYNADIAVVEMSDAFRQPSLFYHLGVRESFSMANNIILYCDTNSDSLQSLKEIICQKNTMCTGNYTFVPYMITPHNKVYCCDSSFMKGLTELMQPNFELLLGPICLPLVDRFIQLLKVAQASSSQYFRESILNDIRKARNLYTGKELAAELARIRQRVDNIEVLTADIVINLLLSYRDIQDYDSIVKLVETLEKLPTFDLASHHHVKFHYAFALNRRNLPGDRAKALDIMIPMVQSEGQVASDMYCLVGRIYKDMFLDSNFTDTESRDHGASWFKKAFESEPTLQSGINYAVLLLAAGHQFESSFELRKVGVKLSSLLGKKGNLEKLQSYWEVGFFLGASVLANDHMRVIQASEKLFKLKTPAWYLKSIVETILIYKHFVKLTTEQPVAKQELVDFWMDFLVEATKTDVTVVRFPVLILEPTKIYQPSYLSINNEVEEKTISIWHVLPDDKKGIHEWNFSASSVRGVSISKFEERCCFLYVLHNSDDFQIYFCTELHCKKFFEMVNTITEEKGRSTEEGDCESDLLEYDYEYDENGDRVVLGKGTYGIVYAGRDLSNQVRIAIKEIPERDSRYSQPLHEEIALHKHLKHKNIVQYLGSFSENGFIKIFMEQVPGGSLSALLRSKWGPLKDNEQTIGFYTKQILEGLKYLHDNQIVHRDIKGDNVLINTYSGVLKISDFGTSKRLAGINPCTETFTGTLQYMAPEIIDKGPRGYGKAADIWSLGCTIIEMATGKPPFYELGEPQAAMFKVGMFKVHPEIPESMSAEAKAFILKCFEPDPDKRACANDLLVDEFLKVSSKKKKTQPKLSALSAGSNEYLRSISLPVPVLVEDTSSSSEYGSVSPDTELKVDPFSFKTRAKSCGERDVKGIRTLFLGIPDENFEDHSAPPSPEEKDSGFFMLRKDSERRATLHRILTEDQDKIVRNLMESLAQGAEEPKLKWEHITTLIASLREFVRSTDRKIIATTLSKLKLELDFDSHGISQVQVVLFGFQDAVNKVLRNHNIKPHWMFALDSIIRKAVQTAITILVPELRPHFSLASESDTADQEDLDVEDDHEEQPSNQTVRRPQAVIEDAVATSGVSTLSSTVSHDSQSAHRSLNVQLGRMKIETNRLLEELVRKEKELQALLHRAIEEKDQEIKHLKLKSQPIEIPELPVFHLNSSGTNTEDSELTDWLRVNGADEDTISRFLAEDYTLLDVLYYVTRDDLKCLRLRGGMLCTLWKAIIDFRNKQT

In experiment [5] the target is T2, Glycogen phosphorylase, brain form (Homo sapiens, UniProt P11216).
T2 sequence (P11216 whole entry): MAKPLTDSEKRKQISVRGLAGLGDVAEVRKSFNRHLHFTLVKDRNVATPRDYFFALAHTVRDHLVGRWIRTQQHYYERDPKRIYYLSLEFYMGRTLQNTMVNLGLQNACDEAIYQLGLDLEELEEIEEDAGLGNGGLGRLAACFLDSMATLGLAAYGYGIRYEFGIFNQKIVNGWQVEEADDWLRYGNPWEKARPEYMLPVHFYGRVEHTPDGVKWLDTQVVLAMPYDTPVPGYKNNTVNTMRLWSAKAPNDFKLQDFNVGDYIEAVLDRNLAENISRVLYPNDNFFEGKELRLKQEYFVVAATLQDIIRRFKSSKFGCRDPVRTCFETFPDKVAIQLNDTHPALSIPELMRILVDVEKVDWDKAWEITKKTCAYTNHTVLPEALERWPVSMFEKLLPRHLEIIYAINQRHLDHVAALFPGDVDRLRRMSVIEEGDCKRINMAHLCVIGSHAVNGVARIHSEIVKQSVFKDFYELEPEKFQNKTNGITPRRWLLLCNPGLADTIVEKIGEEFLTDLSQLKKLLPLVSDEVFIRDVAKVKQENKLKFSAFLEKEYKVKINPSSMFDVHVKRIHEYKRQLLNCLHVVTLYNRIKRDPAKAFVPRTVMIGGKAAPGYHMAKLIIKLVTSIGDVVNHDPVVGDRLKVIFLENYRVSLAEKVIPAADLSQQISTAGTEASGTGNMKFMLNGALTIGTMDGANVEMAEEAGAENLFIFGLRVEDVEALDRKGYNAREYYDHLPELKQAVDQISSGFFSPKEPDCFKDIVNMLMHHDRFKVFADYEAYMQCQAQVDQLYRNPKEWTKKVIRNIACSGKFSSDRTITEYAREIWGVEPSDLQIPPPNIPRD

In experiment [6] the target is Tyrosine-protein kinase HCK (Homo sapiens, UniProt P08631).
Sequence of Tyrosine-protein kinase HCK (P08631 whole entry): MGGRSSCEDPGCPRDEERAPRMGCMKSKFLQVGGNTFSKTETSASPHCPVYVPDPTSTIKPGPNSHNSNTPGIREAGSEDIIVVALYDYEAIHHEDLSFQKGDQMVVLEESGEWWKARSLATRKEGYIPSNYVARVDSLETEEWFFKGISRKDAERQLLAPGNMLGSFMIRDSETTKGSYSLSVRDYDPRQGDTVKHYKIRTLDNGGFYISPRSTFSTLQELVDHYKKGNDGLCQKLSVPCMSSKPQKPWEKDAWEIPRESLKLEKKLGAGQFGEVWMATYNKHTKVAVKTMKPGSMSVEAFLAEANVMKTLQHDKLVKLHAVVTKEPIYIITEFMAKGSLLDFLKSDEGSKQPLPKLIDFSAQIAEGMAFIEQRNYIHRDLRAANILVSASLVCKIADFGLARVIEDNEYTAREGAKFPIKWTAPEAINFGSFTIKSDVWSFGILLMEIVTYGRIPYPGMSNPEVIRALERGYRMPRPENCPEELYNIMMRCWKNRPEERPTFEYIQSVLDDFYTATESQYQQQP
Also: in the data inactive means no Kd found up to 30 µM.

Sequence of Receptor-interacting serine/threonine-protein kinase 3 (Q9Y572 whole entry): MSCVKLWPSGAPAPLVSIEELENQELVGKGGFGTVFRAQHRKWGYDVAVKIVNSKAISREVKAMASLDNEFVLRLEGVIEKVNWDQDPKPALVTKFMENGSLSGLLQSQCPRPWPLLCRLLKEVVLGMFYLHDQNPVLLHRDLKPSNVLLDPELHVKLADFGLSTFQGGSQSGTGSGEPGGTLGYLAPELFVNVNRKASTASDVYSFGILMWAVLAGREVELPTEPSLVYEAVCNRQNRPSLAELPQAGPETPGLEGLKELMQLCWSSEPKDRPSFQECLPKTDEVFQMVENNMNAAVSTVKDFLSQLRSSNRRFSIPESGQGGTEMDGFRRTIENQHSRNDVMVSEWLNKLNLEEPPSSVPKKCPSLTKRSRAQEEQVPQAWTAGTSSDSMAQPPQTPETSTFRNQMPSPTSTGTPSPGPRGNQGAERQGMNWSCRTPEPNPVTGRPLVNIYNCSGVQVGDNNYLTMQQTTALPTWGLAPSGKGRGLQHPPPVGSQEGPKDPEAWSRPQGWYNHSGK
Sequence of Mitogen-activated protein kinase kinase kinase 20 (Q9NYL2 whole entry): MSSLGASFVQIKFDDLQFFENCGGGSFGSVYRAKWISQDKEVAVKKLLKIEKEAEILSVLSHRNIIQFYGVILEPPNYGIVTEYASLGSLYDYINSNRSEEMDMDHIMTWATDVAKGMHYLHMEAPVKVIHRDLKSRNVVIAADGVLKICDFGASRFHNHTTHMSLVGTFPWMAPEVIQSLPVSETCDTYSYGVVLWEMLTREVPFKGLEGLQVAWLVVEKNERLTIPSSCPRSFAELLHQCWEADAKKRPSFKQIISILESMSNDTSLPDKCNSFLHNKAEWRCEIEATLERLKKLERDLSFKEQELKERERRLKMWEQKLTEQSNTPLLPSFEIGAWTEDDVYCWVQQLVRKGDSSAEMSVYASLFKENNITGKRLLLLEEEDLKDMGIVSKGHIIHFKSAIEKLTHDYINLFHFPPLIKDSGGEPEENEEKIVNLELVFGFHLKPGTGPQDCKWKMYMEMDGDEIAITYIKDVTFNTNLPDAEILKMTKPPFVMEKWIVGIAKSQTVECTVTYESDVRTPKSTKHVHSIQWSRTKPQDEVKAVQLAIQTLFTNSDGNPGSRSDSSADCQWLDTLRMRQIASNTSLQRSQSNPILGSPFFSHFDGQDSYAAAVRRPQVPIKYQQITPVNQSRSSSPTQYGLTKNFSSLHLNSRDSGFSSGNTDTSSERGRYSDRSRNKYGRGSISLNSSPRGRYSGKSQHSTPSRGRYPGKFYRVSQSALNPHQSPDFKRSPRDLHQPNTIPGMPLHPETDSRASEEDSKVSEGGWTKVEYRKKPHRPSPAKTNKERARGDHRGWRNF

As a reminder, the Kd is the free concentration of one partner at which half of the binding sites on the other are occupied at equilibrium, for simple one-to-one binding. On to `COc1cc2nccc(Oc3ccc(NC(=O)NC4CC4)c(Cl)c3)c2cc1C(N)=O` [LENVATINIB], for which the Kd in experiment [1] was 0.316 µM (active); in experiment [2] it was > 30 µM (inactive); in experiment [3], > 30 µM (inactive); in experiment [4] it was > 30 µM (inactive); in experiment [5], > 30 µM (inactive); in experiment [6], > 30 µM (inactive).
As to `CO[C@H]1C[C@@H]2CC[C@@H](C)[C@@](O)(O2)C(=O)C(=O)N2CCCC[C@H]2C(=O)O[C@H]([C@H](C)C[C@@H]2CC[C@@H](OCCO)[C@H](OC)C2)CC(=O)[C@H](C)/C=C(\C)[C@@H](O)[C@@H](OC)C(=O)[C@H](C)C[C@H](C)/C=C/C=C/C=C/1C` [EVEROLIMUS], the Kd in experiment [1], in experiment [2], in experiment [3], in experiment [4], in experiment [5] and in experiment [6] was > 30 µM (inactive) each time.
For `Cc1ccc(NC(=O)c2ccc(CN3CC[C@H](N(C)C)C3)c(C(F)(F)F)c2)cc1Nc1nccc(-c2cncnc2)n1` [BAFETINIB], the Kd in experiment [1] is 0.506 µM (active); in experiment [2] it was > 30 µM (inactive); in experiment [3], 0.065 µM (active); in experiment [4] it was > 30 µM (inactive); in experiment [5] it was > 30 µM (inactive); in experiment [6], > 30 µM (inactive).
Take `CC(C)Nc1cc(-c2c[nH]c(C(=O)N[C@H](CO)c3cccc(Cl)c3)c2)c(Cl)cn1` [ULIXERTINIB]: the Kd in experiment [1], in experiment [2], in experiment [3], in experiment [4], in experiment [5] and in experiment [6] was > 30 µM (inactive) each time.
For the compound `O=C(Nc1cccc(Cl)c1)Nc1ncc(CCNc2ncnc3ccsc23)s1` [SNS-314], the Kd in experiment [1], in experiment [4], in experiment [5] and in experiment [6] was > 30 µM (inactive) each time.
On to `O=C1NC(=O)/C(=C/c2ccc3nccc(-c4ccncc4)c3c2)S1` [GSK-1059615], for which the Kd in experiment [1], in experiment [2], in experiment [3], in experiment [4], in experiment [5] and in experiment [6] was > 30 µM (inactive) throughout.
As to `Cc1cn(-c2cc(NC(=O)c3ccc(C)c(Nc4nccc(-c5cccnc5)n4)c3)cc(C(F)(F)F)c2)cn1` [NILOTINIB], the Kd in experiment [1] is 1.27 µM (active).
For `COc1cc(CCc2cc(NC(=O)c3ccc(N4C[C@@H](C)N[C@@H](C)C4)cc3)n[nH]2)cc(OC)c1` [AZD-4547], the Kd in experiment [1] was > 30 µM (inactive); in experiment [2], > 30 µM (inactive); in experiment [3] it was 9.54 µM (active); in experiment [4], > 30 µM (inactive); in experiment [5], > 30 µM (inactive); in experiment [6] it was > 30 µM (inactive).
Regarding `C[C@@H]1CN(Cc2ccc(F)cc2)[C@@H](C)CN1C(=O)c1cc2c(C(=O)C(=O)N(C)C)cn(C)c2cc1Cl` [TALMAPIMOD], the Kd in experiment [1], in experiment [2], in experiment [3], in experiment [4], in experiment [5] and in experiment [6] was > 30 µM (inactive) in each case.
As to `CCS(=O)(=O)N1CC(CC#N)(n2cc(-c3ncnc4[nH]ccc34)cn2)C1` [BARICITINIB], the Kd in experiment [1], in experiment [2], in experiment [3], in experiment [4], in experiment [5] and in experiment [6] was > 30 µM (inactive) in each case.
As to `COc1ccc(-c2ccc3c(N4CCOC[C@@H]4C)nc(N4CCOC[C@@H]4C)nc3n2)cc1CO` [AZD-8055], the Kd in experiment [1], in experiment [2], in experiment [3], in experiment [4], in experiment [5] and in experiment [6] was > 30 µM (inactive) each time.
As to `CN1CC[C@@H](c2c(O)cc(O)c3c(=O)cc(-c4ccccc4Cl)oc23)[C@@H]1CO`, the Kd in experiment [1], in experiment [2], in experiment [3], in experiment [4], in experiment [5] and in experiment [6] was > 30 µM (inactive) in each case.
In the case of `Nc1nc(N)c2nc(-c3cccc(O)c3)c(-c3cccc(O)c3)nc2n1` [TG100-115], the Kd in experiment [1] is 3.67 µM; in experiment [5] it was > 30 µM (inactive).
Taken in the same sequence, the figures for `CN1CCN(c2ccc3nc(-c4c(N)c5c(F)cccc5[nH]c4=O)[nH]c3c2)CC1` [DOVITINIB] were > 30 µM (inactive) and > 30 µM (inactive).
`Cc1cc(Nc2cc(N3CCN(C)CC3)nc(/C=C/c3ccccc3)n2)n[nH]1` [ENMD-2076]: the Kd in experiment [1], in experiment [2], in experiment [4], in experiment [5] and in experiment [6] was > 30 µM (inactive) each time.
Take `Cc1nc(N)sc1-c1ccnc(Nc2ccc(N3CCOCC3)cc2)n1` [CYC-116]: the Kd in experiment [1] was 4.82 µM (active); in experiment [5] it was > 30 µM (inactive).
Take `CCn1c(-c2nonc2N)nc2c(C#CC(C)(C)O)ncc(OC[C@H]3CCCNC3)c21` [GSK-690693]: the Kd in experiment [1] and in experiment [5] was > 30 µM (inactive) throughout.
As to `COc1cc2nccc(Oc3ccc(NC(=O)Nc4cc(C)on4)c(Cl)c3)c2cc1OC` [TIVOZANIB], the Kd in experiment [1] was 1.35 µM (active); in experiment [2], > 30 µM (inactive); in experiment [4] it was > 30 µM (inactive); in experiment [5], > 30 µM (inactive); in experiment [6] it was > 30 µM (inactive).
Take `COC(=O)N[C@@H](C)CNc1nccc(-c2cn(C(C)C)nc2-c2cc(Cl)cc(NS(C)(=O)=O)c2F)n1` [ENCORAFENIB]: the Kd is 0.967 µM (active) in experiment [1]; > 30 µM (inactive) in experiment [2]; > 30 µM (inactive) in experiment [4]; > 30 µM (inactive) in experiment [5]; > 30 µM (inactive) in experiment [6].
For the compound `C1=C/COCc2cc(ccc2OCCN2CCCC2)Nc2nccc(n2)-c2cccc(c2)COC/1` [PACRITINIB], the Kd in experiment [1], in experiment [2], in experiment [4], in experiment [5] and in experiment [6] was > 30 µM (inactive) in each case.
